Consider four molecules from patent publication US20060074255A1, “3-Methyl-20-epi-vitamin D derivatives” (priority 2000, published 2006).

In this experiment the target is T1, bovine thymus vitamin D receptor (Bos taurus, UniProt Q28037).
T1 construct: Bovine thymus 1α,25-dihydroxyvitamin D3 receptor was purchased from Yamasa Biochemcal; purchased Yamasa Biochemcal (Choshi, Chiba, Japan) lot; 112631; host or cells: bovine thymus (tissue preparation)
T1 sequence (Q28037 1-426): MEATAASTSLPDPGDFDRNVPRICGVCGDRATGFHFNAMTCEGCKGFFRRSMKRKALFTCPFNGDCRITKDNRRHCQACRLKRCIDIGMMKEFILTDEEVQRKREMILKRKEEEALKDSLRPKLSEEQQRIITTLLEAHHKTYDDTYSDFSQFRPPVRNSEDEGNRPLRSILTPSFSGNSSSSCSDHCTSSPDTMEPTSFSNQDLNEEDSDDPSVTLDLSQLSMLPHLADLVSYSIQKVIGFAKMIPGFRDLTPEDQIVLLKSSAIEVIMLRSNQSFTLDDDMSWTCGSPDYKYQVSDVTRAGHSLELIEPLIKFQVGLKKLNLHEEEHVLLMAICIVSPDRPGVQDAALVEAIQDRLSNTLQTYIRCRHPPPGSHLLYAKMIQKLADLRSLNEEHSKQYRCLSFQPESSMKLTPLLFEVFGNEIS
Nature of the experiment: Assay for Binding to Bovine Thymus Vitamin D Receptor (VDR). The note with it: relative value with 1α,25-dihydroxyvitamin D3 taken as 100; X=(y/x)×100 from concentrations inhibiting 50% of [3H]-1α,25-dihydroxyvitamin D3 binding to VDR. Here is the method: Assay for Binding to Bovine Thymus Vitamin D Receptor (VDR)
Compounds 14, 16, 19 and 21 synthesized in the above Examples 1 to 4 were tested for their binding properties to bovine thymus vitamin D receptor.
Ethanol solutions of 1α,25-dihydroxyvitamin D3 (the standard substance) and Compounds 14, 16, 19 and 21 were prepared at various concentrations. Bovine thymus 1α,25-dihydroxyvitamin D3 receptor was purchased from Yamasa Biochemcal (Choshi, Chiba, Japan) (lot. 112631) and, just before use, one ampule (approximately 25 mg) of the receptor was dissolved in 55 mL of 0.05 M phosphate buffer (pH 7.4) containing 0.3M KCl and 5 mM dithiothreitol.
Each of the ethanol solutions (50 μl) of the test compounds and 1α,25-dihydroxyvitamin D3 was put into a respective tube with 500 μl (0.23 mg protein) of the receptor solution, pre-incubated at 25° C. for 1 hour, and [^3H]-1α,25-dihydroxyvitamin D3 was added at the final concentration of 0.1 nM, followed by incubation overnight at 4° C. Each of the reaction mixtures was mixed with DCC (dextran coated charcoal), left for 30 minutes at 4° C. and centrifuged at 3000 rpm for ten minutes to separate the bound and free forms of [^3H]-1α,25-dihydroxyvitamin D3. Each of the resultant supernatants (500 μl) was mixed with ACS-II (9.5 ml) (AMERSHAM, England) for radioactivity measurement.
The binding properties of the test compounds expressed in relative value with that of 1α,25-dihydroxyvitamin D3 taken as 100 were shown in Table below. The values were calculated according to the following equation. X=(y/x)×100 • X: relative VDR binding property of a test compound • y: concentration of 1α,25-dihydroxyvitamin D3 that inhibits 50% of the binding of [^3H]-1α,25-dihydroxyvitamin D3 and VDR
x: concentration of the test compound that inhibits 50% of the binding of [^3H]-1α,25-dihydroxyvitamin D3 and VDR

The structures appear in SMILES notation.

Take `C=C1/C(=C\C=C2/CCC[C@@]3(C)C2CCC3[C@@H](C)CCCC(C)(C)O)C[C@@](C)(O)C[C@H]1O` (stereo partly drawn) [Compound 14, (5Z,7E)-(1R,3R,20S)-3-methyl-9,10-seco-5,7,10(19)-cholestatriene-1,3,25-triol]: the VDR binding properties turned out to be 0.035.

For the molecule `C=C1/C(=C\C=C2/CCC[C@@]3(C)C2CCC3[C@@H](C)CCCC(C)(C)O)C[C@@](C)(O)C[C@@H]1O` (stereo partly drawn) [Compound 16, (5Z,7E)-(1S,3R,20S)-3-methyl-9,10-seco-5,7,10(19)-cholestatriene-1,3,25-triol], the VDR binding properties stood at 70.

The molecule `C=C1/C(=C\C=C2/CCC[C@@]3(C)C2CCC3[C@@H](C)CCCC(C)(C)O)C[C@](C)(O)C[C@@H]1O` (stereo partly drawn) [Compound 19, (5Z,7E)-(lS,3S,20S)-3-methyl-9,10-seco-5,7,10(19)-cholestatriene-1,3,25-triol] gave a VDR binding properties of 0.24.

`C=C1/C(=C\C=C2/CCC[C@@]3(C)C2CCC3[C@@H](C)CCCC(C)(C)O)C[C@](C)(O)C[C@H]1O` (stereo partly drawn) [Compound 21, (5Z,7E)-(1R,3S,20S)-3-Methyl-9,10-seco-5,7,10(19)-cholestatriene-1,3,25-triol]: the VDR binding properties is recorded as under 0.01.
